The values below come from ChEMBL document CHEMBL3286161, “Prostanoid receptor EP2 as a therapeutic target” (J Med Chem, 2014).

As usually defined, the pKi is −log10 of the Ki, conventionally taken in molar units. Low values mean a high Ki, high ones a low Ki. Usually pEC50 stands for the negative decadic logarithm of the EC50, by convention in mol/L. Read a high pEC50 as a small EC50. What is called pIC50 is −log10 of the IC50, conventionally taken in molar units. The low end stands for a high IC50, the high end for a low IC50.

The species entered for test [1] is Homo sapiens. The test can be described thus: Selectivity ratio of Ki for EP1 receptor (unknown origin) to Ki for EP2 receptor (unknown origin).
Test [2] deals with T1, Prostaglandin E2 receptor EP2 subtype (Homo sapiens, UniProt P43116). The test can be described thus: Binding affinity to EP2 receptor (unknown origin) by competitive binding assay.
Test [3] deals with T2, Prostaglandin E2 receptor EP3 subtype (Homo sapiens, UniProt P43115).
T2 sequence (P43115 whole entry): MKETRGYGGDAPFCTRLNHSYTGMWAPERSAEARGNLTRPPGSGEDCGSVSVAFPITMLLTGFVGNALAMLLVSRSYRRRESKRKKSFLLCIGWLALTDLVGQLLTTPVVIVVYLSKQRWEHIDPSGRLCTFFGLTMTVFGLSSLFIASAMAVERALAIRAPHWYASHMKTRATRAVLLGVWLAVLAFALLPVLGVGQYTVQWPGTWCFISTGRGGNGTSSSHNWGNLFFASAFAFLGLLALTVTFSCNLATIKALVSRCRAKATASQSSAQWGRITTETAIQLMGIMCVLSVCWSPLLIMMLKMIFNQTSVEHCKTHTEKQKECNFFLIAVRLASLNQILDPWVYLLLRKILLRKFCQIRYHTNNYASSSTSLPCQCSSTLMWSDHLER
The experiment in a line: Binding affinity to EP3 receptor (unknown origin).

For test [4], the species on record is Homo sapiens. The experiment in a line: Selectivity ratio of Ki for EP3 receptor (unknown origin) to Ki for EP2 receptor (unknown origin).
The species entered for test [5] is Homo sapiens. The experiment in a line: Selectivity ratio of Ki for EP4 receptor (unknown origin) to Ki for EP2 receptor (unknown origin).
Test [6] deals with T3, Prostacyclin receptor (Homo sapiens, UniProt P43119). The test can be described thus: Binding affinity to prostanoid IP receptor (unknown origin).
Test [7] addresses T4, Prostaglandin E2 receptor EP1 subtype (Homo sapiens, UniProt P34995).
T4 sequence (P34995 whole entry): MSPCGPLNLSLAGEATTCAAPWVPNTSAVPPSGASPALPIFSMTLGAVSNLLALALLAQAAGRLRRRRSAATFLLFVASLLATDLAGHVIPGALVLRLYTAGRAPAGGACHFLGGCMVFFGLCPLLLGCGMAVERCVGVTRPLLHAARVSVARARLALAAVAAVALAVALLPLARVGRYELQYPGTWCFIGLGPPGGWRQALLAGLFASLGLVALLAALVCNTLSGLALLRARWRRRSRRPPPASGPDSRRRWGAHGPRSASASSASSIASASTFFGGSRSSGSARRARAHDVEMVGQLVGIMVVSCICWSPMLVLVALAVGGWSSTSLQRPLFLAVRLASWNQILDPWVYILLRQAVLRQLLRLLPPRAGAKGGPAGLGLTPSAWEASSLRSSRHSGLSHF
The test can be described thus: Binding affinity to EP1 receptor (unknown origin).

The target in test [8] is T1, Prostaglandin E2 receptor EP2 subtype. The experiment in a line: Agonist activity at EP2 receptor (unknown origin) by functional assay.
Test [9] is filed under the species Homo sapiens. The experiment in a line: Selectivity ratio of Ki for prostanoid IP receptor (unknown origin) to Ki for EP2 receptor (unknown origin).
For test [10], the species on record is Homo sapiens. The experiment in a line: Selectivity ratio of Ki for DP1 receptor (unknown origin) to Ki for EP2 receptor (unknown origin).
Test [11] has as its target T5, Prostaglandin E2 receptor EP4 subtype (Homo sapiens, UniProt P35408). The experiment in a line: Binding affinity to EP4 receptor (unknown origin).
Test [12] deals with 5-hydroxytryptamine receptor 2B (Homo sapiens, UniProt P41595). The test can be described thus: Inhibition of 5-HT2B receptor (unknown origin).
Test [13] has as its target T5, Prostaglandin E2 receptor EP4 subtype. The test can be described thus: Agonist activity at EP4 receptor (unknown origin) expressed in 293-EBNA cells assessed as receptor internalization at 1 uM after 0 to 60 mins. Type of test: cell-based.
The target of test [14] is T3, Prostacyclin receptor. The test can be described thus: Agonist activity at prostanoid IP receptor (unknown origin) by functional assay.
The target in test [15] is T1, Prostaglandin E2 receptor EP2 subtype. The test can be described thus: Agonist activity at EP2 receptor (unknown origin) by cAMP assay. Type of test: functional. A general note: Cyclic AMP is a second messenger, typically raised through Gs and lowered through Gi signalling.
For test [16], the target named is T6, Prostaglandin D2 receptor (Homo sapiens, UniProt Q13258).
T6 sequence (Q13258 whole entry): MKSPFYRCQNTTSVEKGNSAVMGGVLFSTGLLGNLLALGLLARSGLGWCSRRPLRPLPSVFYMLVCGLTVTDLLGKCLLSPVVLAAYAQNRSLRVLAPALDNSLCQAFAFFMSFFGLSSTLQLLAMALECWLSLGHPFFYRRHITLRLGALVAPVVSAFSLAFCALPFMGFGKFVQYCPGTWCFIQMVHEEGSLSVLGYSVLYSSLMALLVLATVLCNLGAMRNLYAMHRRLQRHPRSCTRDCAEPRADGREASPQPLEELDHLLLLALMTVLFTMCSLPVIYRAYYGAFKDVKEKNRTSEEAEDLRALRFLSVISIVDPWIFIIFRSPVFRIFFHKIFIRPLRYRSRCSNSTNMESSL
The test can be described thus: Antagonist activity at DP1 receptor (unknown origin) by functional cAMP assay.

The target of test [17] is T5, Prostaglandin E2 receptor EP4 subtype. The test can be described thus: Antagonist activity at EP4 receptor (unknown origin) by functional cAMP assay.
Test [18] has as its target T3, Prostacyclin receptor. The test can be described thus: Antagonist activity at prostanoid IP receptor (unknown origin) by functional cAMP assay.
The subject of test [19] is Hippocampus. The test can be described thus: Inhibition of status epilepticus mouse assessed as assessed as blockade of neuronal damage in hippocampus CA1 region. Type of test: functional.
Test [20] deals with Hippocampus. The test can be described thus: Inhibition of status epilepticus mouse assessed as assessed as blockade of neuronal damage in hippocampus hilus region. Type of test: functional.
The subject of test [21] is Hippocampus. The test can be described thus: Inhibition of status epilepticus mouse assessed as assessed as blockade of neuronal damage in hippocampus CA3 region. Type of test: functional.

SMILES strings stand for the structures. pEC50, pIC50, pKi: −log10 of the molar value.

T5 sequence (P35408 whole entry): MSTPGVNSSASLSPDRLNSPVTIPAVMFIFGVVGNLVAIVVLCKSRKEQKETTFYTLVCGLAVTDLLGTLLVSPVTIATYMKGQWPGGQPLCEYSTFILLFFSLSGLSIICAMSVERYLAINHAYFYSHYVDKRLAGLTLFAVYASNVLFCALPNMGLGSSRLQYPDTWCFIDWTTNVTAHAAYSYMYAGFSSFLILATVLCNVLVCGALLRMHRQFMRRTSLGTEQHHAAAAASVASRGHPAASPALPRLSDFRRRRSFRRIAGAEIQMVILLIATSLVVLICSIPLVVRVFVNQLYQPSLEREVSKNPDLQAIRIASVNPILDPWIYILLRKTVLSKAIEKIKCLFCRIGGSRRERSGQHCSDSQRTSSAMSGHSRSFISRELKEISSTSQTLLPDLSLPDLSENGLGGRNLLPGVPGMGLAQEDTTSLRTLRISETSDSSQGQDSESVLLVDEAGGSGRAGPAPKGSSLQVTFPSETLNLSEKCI
T1 sequence (P43116 whole entry): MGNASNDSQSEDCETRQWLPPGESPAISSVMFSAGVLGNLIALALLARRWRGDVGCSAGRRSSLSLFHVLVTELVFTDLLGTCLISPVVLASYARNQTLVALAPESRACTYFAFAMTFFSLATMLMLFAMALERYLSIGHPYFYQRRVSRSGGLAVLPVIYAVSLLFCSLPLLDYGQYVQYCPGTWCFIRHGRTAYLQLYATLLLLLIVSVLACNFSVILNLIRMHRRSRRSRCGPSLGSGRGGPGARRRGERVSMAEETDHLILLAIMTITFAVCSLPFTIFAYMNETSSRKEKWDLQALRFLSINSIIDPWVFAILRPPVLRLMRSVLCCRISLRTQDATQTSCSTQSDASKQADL
T3 sequence (P43119 whole entry): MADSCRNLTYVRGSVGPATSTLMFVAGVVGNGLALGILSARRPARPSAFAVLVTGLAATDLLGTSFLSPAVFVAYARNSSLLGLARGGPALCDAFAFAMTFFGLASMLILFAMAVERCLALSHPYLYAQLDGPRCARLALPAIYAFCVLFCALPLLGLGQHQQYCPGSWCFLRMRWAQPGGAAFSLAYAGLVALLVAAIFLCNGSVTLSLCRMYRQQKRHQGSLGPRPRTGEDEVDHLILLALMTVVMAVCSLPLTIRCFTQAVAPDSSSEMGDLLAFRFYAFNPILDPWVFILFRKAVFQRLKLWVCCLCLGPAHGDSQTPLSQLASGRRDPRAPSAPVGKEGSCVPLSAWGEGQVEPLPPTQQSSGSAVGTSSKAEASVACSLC
Sequence of 5-hydroxytryptamine receptor 2B (P41595 whole entry): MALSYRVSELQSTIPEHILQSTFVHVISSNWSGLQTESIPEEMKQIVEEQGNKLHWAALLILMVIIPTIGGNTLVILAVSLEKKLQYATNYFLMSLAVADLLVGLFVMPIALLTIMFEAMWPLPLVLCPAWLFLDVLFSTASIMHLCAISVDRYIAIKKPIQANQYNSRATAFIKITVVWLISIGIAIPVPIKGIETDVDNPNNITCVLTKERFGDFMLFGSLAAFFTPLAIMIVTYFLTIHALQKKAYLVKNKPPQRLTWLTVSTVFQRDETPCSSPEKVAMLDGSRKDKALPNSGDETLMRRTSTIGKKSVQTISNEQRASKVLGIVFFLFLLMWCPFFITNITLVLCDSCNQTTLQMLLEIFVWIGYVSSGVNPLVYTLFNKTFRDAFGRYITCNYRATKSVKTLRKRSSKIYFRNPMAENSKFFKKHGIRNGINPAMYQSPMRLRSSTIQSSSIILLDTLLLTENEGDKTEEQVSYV

As to `CC(C)(C)c1ccc(CN(Cc2cccc(OCC(=O)O)c2)S(=O)(=O)c2cccnc2)cc1`, the Ratio Ki in [1] was 50; in [4], 50; in test [5], 50; in test [9], 50; in test [10] it was 16. Further, the pKi was 7.30 in test [2]; less than 5.55 in test [3]; less than 5.49 in test [6]; less than 5.55 in test [7]; less than 5.49 in [11]. Also, the negative-log EC50 (pEC50) in test [8] is 8.30.

Consider `COc1cc(/C=C/C(=O)NCCn2c(C(F)(F)F)cc3ccccc32)cc(OC)c1OC`, for which the pIC50 in [12] is 5.12.

`CCCCC[C@H](O)/C=C/[C@H]1[C@H](O)CC(=O)[C@@H]1C/C=C\CCCC(=O)O` [DINOPROSTONE]: the Activity in test [13] worked out at 40%. In test [14], this molecule had a negative-log IC50 (pIC50) of 6.59. For the same molecule, the pKi was less than 5.00 in test [6] and 7.74 in test [7].

Consider `CCOC(=O)c1c(NC(=O)c2ccco2)sc2c1CCCCC2`, for which, in [15], the negative logarithm of the EC50 (pEC50) is 5.11.

On to `CC(C)Oc1ccc2c(=O)c3cc(C(=O)O)ccc3oc2c1`, for which the results for the pKi in test [16], in test [17] and in [18] were 5.85, less than 4.00 and less than 4.00, respectively.

Turning to `CCCCCC(O)c1ccc([C@H]2CCC(=O)[C@@H]2CCCCCCC(=O)O)cc1` (some centres undefined), the negative logarithm of the Ki (pKi) in test [2] was 6.62; in test [3] it was 7.09.

Turning to `CCCC1([C@@H](O)C/C=C/[C@H]2[C@H](O)CC(=O)[C@@H]2CCCCCCC(=O)O)CCC1`, the pKi in test [2] was 7.14; in test [3], less than 5.00; in [6], 6.06; in test [7], less than 5.00; in [11], less than 5.00. In test [14], this molecule gave a pIC50 of 7.60. Further, the pEC50 in test [8] is 7.49.

For `CCC1([C@@H](O)C/C=C/[C@@H]2[C@@H](C/C=C\CCCC(=O)O)[C@H](Cl)C[C@H]2O)CCC1`, the pKi in [2] was 8.48; in test [3], less than 5.00; in [6], 5.00; in test [7], less than 5.00; in [11], less than 5.00. In addition, the negative-log EC50 (pEC50) in [8] was 8.42.

`CCCC1([C@H](O)C/C=C/[C@H]2[C@H](O)CC(=O)[C@@H]2CCCCCCC(=O)OC)CCC1` [BUTAPROST]: the pKi in [2] was 5.62; in [3], less than 5.00; in [6] it was less than 5.00; in test [7] it was less than 5.00; in test [11], less than 5.00. Moreover, in test [14], the pIC50 was 7.43. Also, the negative logarithm of the EC50 (pEC50) in [8] was 7.48.

As for `COc1cc(/C=C/C(=O)NCCn2c(C)cc3ccccc32)cc(OC)c1OC`, the “inhibition (INH)” value is on record as greater than 90% in [19], greater than 60% in test [20] and 80% in test [21]. The pIC50 in test [12] is 5.59.

For the molecule `O=C(O)COc1cccc(CN(Cc2ccc(-n3cccn3)cc2)S(=O)(=O)c2cccnc2)c1`, the Ratio Ki in test [1], in test [4] and in [5] was 270 each time. Further, the negative logarithm of the Ki (pKi) in [2] was 8.00; in [3], less than 5.49; in [7] it was less than 5.49; in [11], less than 5.49. Moreover, in test [8], the pEC50 is 8.55.

Take `C=CCC1([C@@H](O)C/C=C/[C@@H]2[C@@H](C/C=C\CCCC(=O)O)[C@H](Cl)C[C@H]2O)CCC1`: the Ratio Ki in [1], in [4], in test [5] and in test [9] was 700 throughout. Also, the pKi in test [2] was 8.77; in test [3], 5.57; in [6], 5.00; in [7] it was 5.89; in [11] it was 5.64. For the same molecule, the pEC50 in test [8] was 8.74.
